{"source": "patent US20170027902A1", "about": "“Use of a Composition Comprising a Flavonol, A Flavonoid, and a Fatty Acid in the Treatment of Oxidative Injuries Due to Mitochondrial Dysfunction” (priority 2014, published 2017)", "tested_on": "primary mouse cortical cultures", "assay": "Confocal imaging of calcium transients and mitochondrial membrane potential", "assay_type": "cell-based", "description": "Embryonic day 16 timed pregnant CD1 out-bred mice were obtained from Charles River Laboratories (Charles River; QC, Canada). Primary cortical neuron cultures were prepared from cerebral cortices of wild type (WT) CD1 mouse embryos as described previously, with the following modifications. Pregnant CD1 females were heavily anaesthetized with isoflurane vapor (Benson Medical Industries, Inc., Markham, ON) before being euthanized by decapitation. The embryonic day 16 (E16) fetuses were immediately removed from the sacrificed pregnant females by cesarean section and placed in ice-cold Hank's Balanced Salt Solution (HBSS) (GIBCO; Invitrogen, Amarillo, Calif.). The meninges were removed from the brains and cortices were isolated under a dissecting microscope. The cortices from each embryo were placed in individual wells of a 24-well plate (Corning; Lowell, Mass.), containing 1 ml of ice-cold PBS (GIBCO; […] Under sterile conditions, the tissue was briefly minced, transferred to 15 ml sterile conical tubes (Corning; Lowell, Mass.) and centrifuged at 350×g for 3 min at room temperature. The dissecting solution was discarded and the cortical neurons were then dissociated trituration with fire-polished glass pipettes followed by incubating in 1 ml of 0.1% trypsin solution (0.1% w/v trypsin (Invitrogen, Amarillo, Calif.) in PBS with 1 mM Mg^2+ and 13 mM glucose) at 37° C. for 15 min. The trypsinization was inhibited by the addition of 0.5 ml of trypsin inhibitor solution that also contained DNase I (0.06% w/v trypsin inhibitor (Invitrogen; Amarillo, Calif.) and 0.01% DNase I (Invitrogen; […] The tubes were mixed briefly and the cells were centrifuged at 350×g for 3 min at room temperature. The trypsin and inhibitor solutions were discarded and each cell pellet was suspended in 1 ml of cortical neuron plating medium (Neurobasal medium (Invitrogen, Amarillo, Calif.) with 10% fetal bovine serum (GIBCO; Invitrogen; Amarillo, Calif.), 2% B27 supplement, 1 mM L-glutamine, and 1% Gentamycin (Invitrogen; […] Cortical neurons were plated in 96-well plates (Corning; Lowell, Mass.) that were pre-coated with poly-D-lysine (PDL; Sigma-Aldrich; Oakville, ON) according to the procedure described by the manufacturer. Briefly, plates were coated immediately before use with 100 μg/ml PDL for 5-10 min (50 μl/well), washed three times with tissue-culture grade water and left to dry for 2 h before cells were introduced. Cortical neurons were plated at a concentration of 1×10^6 cells/ml (100 µl/well) and medium was completely changed the day after plating to serum-free cortical neuron medium (Neurobasal medium with 2% B27 supplement, 5 mM HEPES, 0.5 mM L-glutamine, and 20 μg/ml Gentamycin), which was replaced every 3 days in culture. Cultures were maintained in a humidified, 37° C. incubator with 5% CO2. Experiments were performed on the eighth day in vitro (DIV10). For measurements of mitochondrial membrane potential (ΔΨm), cells were loaded with 25 nM tetrannethylrhodamine methyl ester (TMRM) for 30 min at room temperature and the dye was present during the experiment. TMRM is used in the redistribution mode to assess ΔΨm with a reduction in TMRM fluorescence indicating mitochondrial depolarization. Neurons were loaded for 30 min at room temperature with X-rhod-1 AM (0.5 μM) and Fluo-3 AM (0.5 μM) (Molecular Probes, Invitrogen) prior to imaging in HEPES-buffered salt solution (HBSS) composed of (mM): 156 NaCl, 3 KCl, 2 MgSO4, 1.25 KH2PO4, 2 CaCl2, 10 glucose and 10 HEPES, pH adjusted to 7.35 with NaOH. Confocal images were obtained using a 510 CLSM (Zeiss, Thornwood, N.Y.) equipped with a META detection system and a […] oil-immersion objective. The 488 nm Argon laser line was used to excite fluo-3 fluorescence, which was measured using a bandpass filter from 505 to 550 nm. Illumination intensity was kept to a minimum (at 0.1-0.2% of laser output) to avoid phototoxicity and the pinhole was set to give an optical slice of 2 μm. […]"}
{"smiles": "C/C=C(/C)C(=O)O[C@H]1C(C)=C2[C@H]([C@@H]1OC(=O)CCCCCCC)[C@@](C)(OC(C)=O)C[C@H](OC(=O)CCC)[C@@]1(O)[C@H]2OC(=O)[C@@]1(C)O", "note": "[thapsigargin]", "values": [{"measurement": "[Ca2+]c oscillations stimulated by Q", "setting": "5 μM, depletion of ER Ca2+ stores", "value": "blocked"}]}
{"smiles": "N#CC(C#N)=NNc1ccc(OC(F)(F)F)cc1", "note": "[FCCP, carbonyl cyanide-4-(trifluoromethoxy)phenylhydrazone]", "values": [{"measurement": "TMRM fluorescence", "setting": "added after Q and thapsigargin", "value": "complete loss"}, {"measurement": "[Ca2+]c", "setting": "added after Q and thapsigargin", "value": "sharp increase"}]}
